Results taken from PubChem BioAssay (NCI).
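Five compound concentrations were applied to cells in 96-well plates for 48 hours; endpoints were derived by simple linear interpolation of the resulting dose-response curve. GI50 = concentration required for 50% inhibition of growth. TGI marks complete inhibition of growth.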

Columns and labels:
Test in all cases: NCI tumour cell line growth inhibition, 48 h
A498 renal = test system: A498 renal
SK-OV-3 ovarian = test system: SK-OV-3 ovarian
SNB-75 CNS = test system: SNB-75 CNS
HOP-92 NSCLC = test system: HOP-92 NSCLC
CAKI-1 renal = test system: CAKI-1 renal
MALME-3M melanoma = test system: MALME-3M melanoma
NCI-H226 lung = test system: NCI-H226 lung
HOP-62 NSCLC = test system: HOP-62 NSCLC
SF-268 CNS = test system: SF-268 CNS
UACC-257 melanoma = test system: UACC-257 melanoma
MCF7 breast = test system: MCF7 breast
786-0 renal = test system: 786-0 renal
UACC-62 melanoma = test system: UACC-62 melanoma
OVCAR-8 ovarian = test system: OVCAR-8 ovarian
BT-549 breast = test system: BT-549 breast
UO-31 renal = test system: UO-31 renal
OVCAR-3 ovarian = test system: OVCAR-3 ovarian
SK-MEL-5 melanoma = test system: SK-MEL-5 melanoma
T-47D breast = test system: T-47D breast
CCRF-CEM leukemia = test system: CCRF-CEM leukemia
RXF 393 renal = test system: RXF 393 renal
HCT-116 colon = test system: HCT-116 colon
HT29 colon = test system: HT29 colon
SR leukemia = test system: SR leukemia
TK-10 renal = test system: TK-10 renal
EKVX NSCLC = test system: EKVX NSCLC
RPMI-8226 leukemia = test system: RPMI-8226 leukemia
MDA-MB-435 = test system: MDA-MB-435
LOX IMVI melanoma = test system: LOX IMVI melanoma

C=C(C)[C@@H]1CC[C@]2(COS(C)(=O)=O)CC[C@]3(C)[C@H](CC[C@@H]4[C@@]5(C)CCCNC(C)(C)[C@@H]5CC[C@]43C)[C@@H]12
TGI (A498 renal): 6160 nM | GI50 (SK-OV-3 ovarian): 6440 nM | TGI (SK-OV-3 ovarian): 19600 nM | GI50 (SNB-75 CNS): 1370 nM | TGI (SNB-75 CNS): 3080 nM | GI50 (HOP-92 NSCLC): 1300 nM | TGI (HOP-92 NSCLC): 2810 nM | GI50 (CAKI-1 renal): 1670 nM | TGI (CAKI-1 renal): 3190 nM | GI50 (MALME-3M melanoma): 1770 nM | TGI (MALME-3M melanoma): 3730 nM | GI50 (NCI-H226 lung): 1770 nM | TGI (NCI-H226 lung): 3400 nM | GI50 (HOP-62 NSCLC): 1670 nM | TGI (HOP-62 NSCLC): 3210 nM | GI50 (SF-268 CNS): 2610 nM | TGI (SF-268 CNS): 6490 nM | GI50 (UACC-257 melanoma): 1990 nM | TGI (UACC-257 melanoma): 4270 nM | GI50 (MCF7 breast): 1590 nM | TGI (MCF7 breast): 3500 nM | GI50 (786-0 renal): 1800 nM | TGI (786-0 renal): 3270 nM | GI50 (UACC-62 melanoma): 1720 nM | TGI (UACC-62 melanoma): 3140 nM | GI50 (OVCAR-8 ovarian): 1930 nM | TGI (OVCAR-8 ovarian): 3770 nM | GI50 (BT-549 breast): 1990 nM | TGI (BT-549 breast): 4080 nM | GI50 (UO-31 renal): 1270 nM | TGI (UO-31 renal): 2630 nM | GI50 (OVCAR-3 ovarian): 1790 nM | TGI (OVCAR-3 ovarian): 3220 nM | GI50 (SK-MEL-5 melanoma): 1730 nM | TGI (SK-MEL-5 melanoma): 3130 nM | GI50 (T-47D breast): 1780 nM | TGI (T-47D breast): 4000 nM | GI50 (CCRF-CEM leukemia): 1760 nM | TGI (CCRF-CEM leukemia): 4420 nM | GI50 (RXF 393 renal): 1660 nM | TGI (RXF 393 renal): 3080 nM | GI50 (HCT-116 colon): 1720 nM | TGI (HCT-116 colon): 3240 nM | GI50 (HT29 colon): 1830 nM | TGI (HT29 colon): 3550 nM | GI50 (SR leukemia): 1560 nM | TGI (SR leukemia): 3520 nM | GI50 (TK-10 renal): 1680 nM | TGI (TK-10 renal): 3580 nM | GI50 (EKVX NSCLC): 1580 nM | TGI (EKVX NSCLC): 3140 nM | GI50 (RPMI-8226 leukemia): 2050 nM | TGI (RPMI-8226 leukemia): 4620 nM | GI50 (MDA-MB-435): 1640 nM | TGI (MDA-MB-435): 3040 nM | GI50 (LOX IMVI melanoma): 1090 nM | TGI (LOX IMVI melanoma): 2370 nM
